Laboratory results published in publication PMC12951562, “SH2scan: Mapping SH2 Domain-Ligand Binding Selectivity for Inhibitors and Degraders” (Journal of Medicinal Chemistry, 2026).
Positions count from the first letter of the chain named. Non-standard residues stand in square brackets, D forms with d. Residues, ends and D or L forms follow the SMILES beside them. pY = N[C@@H](Cc1ccc(OP(=O)(O)O)cc1)C(=O)O

Assays:
Experiment in all cases: biochemical
Assay type in all cases: binding
STAT6 = molecular target: T1, STAT6 (Homo sapiens, UniProt P42226)
T1 construct: made in house; host or cells: HEK293 (transient transfection), unpurified extract
T1 sequence (P42226 1-847): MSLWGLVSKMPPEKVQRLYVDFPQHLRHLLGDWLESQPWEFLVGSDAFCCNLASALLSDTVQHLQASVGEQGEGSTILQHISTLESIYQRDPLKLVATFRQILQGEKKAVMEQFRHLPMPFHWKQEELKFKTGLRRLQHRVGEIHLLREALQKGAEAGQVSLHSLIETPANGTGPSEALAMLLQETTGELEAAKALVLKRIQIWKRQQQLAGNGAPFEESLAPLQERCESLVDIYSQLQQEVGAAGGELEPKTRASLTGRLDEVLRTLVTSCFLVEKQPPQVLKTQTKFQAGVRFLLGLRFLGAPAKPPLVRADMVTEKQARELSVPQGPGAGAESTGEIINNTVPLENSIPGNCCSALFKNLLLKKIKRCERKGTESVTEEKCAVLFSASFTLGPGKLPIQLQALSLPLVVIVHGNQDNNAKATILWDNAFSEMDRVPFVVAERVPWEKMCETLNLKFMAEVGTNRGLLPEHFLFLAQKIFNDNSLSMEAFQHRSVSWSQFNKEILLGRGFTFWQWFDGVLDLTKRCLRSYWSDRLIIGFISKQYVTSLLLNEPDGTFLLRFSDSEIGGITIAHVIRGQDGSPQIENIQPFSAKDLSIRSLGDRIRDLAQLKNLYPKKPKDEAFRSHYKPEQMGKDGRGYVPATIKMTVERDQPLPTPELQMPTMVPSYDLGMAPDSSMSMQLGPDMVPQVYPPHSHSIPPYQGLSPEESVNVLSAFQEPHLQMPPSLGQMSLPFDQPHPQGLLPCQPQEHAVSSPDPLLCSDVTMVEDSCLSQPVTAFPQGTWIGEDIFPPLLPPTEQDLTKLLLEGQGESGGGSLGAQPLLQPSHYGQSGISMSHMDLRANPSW

STAT5B = molecular target: T2, STAT5B (Homo sapiens, UniProt P51692)
T2 construct: made in house; host or cells: HEK293 (transient transfection), unpurified extract
T2 sequence (P51692 1-787): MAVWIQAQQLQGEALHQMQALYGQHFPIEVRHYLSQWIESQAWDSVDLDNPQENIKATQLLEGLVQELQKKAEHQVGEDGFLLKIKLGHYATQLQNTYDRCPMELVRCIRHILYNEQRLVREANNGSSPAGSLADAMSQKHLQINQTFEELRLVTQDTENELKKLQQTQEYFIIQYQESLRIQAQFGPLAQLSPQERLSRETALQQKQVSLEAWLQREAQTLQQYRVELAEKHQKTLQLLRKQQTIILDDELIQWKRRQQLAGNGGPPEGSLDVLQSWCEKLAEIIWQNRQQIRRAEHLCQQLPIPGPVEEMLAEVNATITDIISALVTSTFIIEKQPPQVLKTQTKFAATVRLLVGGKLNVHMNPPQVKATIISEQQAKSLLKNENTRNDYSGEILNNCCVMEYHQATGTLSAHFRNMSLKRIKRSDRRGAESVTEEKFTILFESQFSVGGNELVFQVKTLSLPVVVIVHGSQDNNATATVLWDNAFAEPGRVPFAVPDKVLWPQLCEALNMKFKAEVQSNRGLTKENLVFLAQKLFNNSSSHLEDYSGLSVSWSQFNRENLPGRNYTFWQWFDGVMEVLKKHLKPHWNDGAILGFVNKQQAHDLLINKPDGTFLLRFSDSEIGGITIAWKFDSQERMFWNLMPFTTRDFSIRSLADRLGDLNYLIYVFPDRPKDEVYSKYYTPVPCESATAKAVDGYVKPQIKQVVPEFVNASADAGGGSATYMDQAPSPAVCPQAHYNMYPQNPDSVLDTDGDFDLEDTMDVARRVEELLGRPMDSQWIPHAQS

STAT5B(N642H) = molecular target: T3, STAT5B(N642H) (Homo sapiens, UniProt P51692, N642H)
T3 construct: made in house; host or cells: HEK293 (transient transfection), unpurified extract
T3 sequence (P51692 1-787 N642H): T2 sequence (P51692 1-787) with N642H

FER = molecular target: T4, FER (Homo sapiens, UniProt P16591)
T4 construct: the DNA-tagged SH2 domain concentrations used in this study were <0.1 nM; made in house; host or cells: HEK293 (transient transfection; unpurified extract)
T4 sequence (P16591 460-550 limits assumed): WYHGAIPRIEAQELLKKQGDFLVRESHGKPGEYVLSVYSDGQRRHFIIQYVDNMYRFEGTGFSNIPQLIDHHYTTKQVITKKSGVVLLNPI

STAT1 = molecular target: T5, STAT1 (Homo sapiens, UniProt P42224)
T5 construct: made in house; host or cells: HEK293 (transient transfection), unpurified extract
T5 sequence (P42224 1-750): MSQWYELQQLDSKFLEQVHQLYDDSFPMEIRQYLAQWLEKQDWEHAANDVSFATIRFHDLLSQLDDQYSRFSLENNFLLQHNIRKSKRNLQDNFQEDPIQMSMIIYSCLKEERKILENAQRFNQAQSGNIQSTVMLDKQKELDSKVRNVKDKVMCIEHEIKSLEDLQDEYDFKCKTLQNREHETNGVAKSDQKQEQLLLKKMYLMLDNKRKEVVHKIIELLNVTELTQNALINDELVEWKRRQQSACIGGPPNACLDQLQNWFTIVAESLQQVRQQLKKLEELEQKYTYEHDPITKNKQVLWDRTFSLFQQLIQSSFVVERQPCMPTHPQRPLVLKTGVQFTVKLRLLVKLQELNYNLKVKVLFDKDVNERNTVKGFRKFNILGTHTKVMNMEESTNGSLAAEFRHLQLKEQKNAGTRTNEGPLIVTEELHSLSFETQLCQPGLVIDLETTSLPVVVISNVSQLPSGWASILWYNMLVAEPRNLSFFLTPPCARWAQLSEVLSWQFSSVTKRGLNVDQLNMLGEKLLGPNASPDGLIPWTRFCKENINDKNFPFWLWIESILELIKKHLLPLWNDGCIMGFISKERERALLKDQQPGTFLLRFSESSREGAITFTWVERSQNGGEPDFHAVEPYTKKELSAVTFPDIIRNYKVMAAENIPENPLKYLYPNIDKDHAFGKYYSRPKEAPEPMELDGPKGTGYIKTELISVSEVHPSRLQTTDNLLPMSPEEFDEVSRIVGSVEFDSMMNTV

PIK3R1(SH2dom.C-term.) = molecular target: T6, PIK3R1(SH2dom.C-term.) (Homo sapiens, UniProt P27986)
T6 construct: SH2dom.C-term. denotes SH2 domain closest to C-terminus of protein; made in house; host or cells: HEK293 (transient transfection, unpurified extract)
T6 sequence (P27986 624-718 limits assumed): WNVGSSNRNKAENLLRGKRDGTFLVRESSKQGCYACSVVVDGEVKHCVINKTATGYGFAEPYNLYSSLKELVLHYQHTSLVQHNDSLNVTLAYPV

PIK3R2(SH2dom.C-term.) = molecular target: T7, PIK3R2(SH2dom.C-term.) (Homo sapiens, UniProt O00459)
T7 construct: SH2dom.C-term. denotes SH2 domain closest to C-terminus of protein; made in house; host or cells: HEK293 (transient transfection, unpurified extract)
T7 sequence (O00459 622-716 limits assumed): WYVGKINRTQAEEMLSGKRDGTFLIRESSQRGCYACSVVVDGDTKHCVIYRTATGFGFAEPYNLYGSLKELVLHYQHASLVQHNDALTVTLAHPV

PIK3R3(SH2dom.C-term.) = molecular target: T8, PIK3R3(SH2dom.C-term.) (Homo sapiens, UniProt Q92569)
T8 construct: SH2dom.C-term. denotes SH2 domain closest to C-terminus of protein; made in house; host or cells: HEK293 (transient transfection, unpurified extract)

ABL1 = molecular target: T9, ABL1 (Homo sapiens, UniProt P00519)
T9 construct: the DNA-tagged SH2 domain concentrations used in this study were <0.1 nM; made in house; host or cells: HEK293 (transient transfection; unpurified extract)
T9 sequence (P00519 127-217 limits assumed): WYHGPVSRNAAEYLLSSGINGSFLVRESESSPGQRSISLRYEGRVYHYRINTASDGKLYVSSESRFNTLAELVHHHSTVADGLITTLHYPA

STAT4 = molecular target: T10, STAT4 (Homo sapiens, UniProt Q14765)
T10 construct: made in house; host or cells: HEK293 (transient transfection), unpurified extract
T10 sequence (Q14765 1-748): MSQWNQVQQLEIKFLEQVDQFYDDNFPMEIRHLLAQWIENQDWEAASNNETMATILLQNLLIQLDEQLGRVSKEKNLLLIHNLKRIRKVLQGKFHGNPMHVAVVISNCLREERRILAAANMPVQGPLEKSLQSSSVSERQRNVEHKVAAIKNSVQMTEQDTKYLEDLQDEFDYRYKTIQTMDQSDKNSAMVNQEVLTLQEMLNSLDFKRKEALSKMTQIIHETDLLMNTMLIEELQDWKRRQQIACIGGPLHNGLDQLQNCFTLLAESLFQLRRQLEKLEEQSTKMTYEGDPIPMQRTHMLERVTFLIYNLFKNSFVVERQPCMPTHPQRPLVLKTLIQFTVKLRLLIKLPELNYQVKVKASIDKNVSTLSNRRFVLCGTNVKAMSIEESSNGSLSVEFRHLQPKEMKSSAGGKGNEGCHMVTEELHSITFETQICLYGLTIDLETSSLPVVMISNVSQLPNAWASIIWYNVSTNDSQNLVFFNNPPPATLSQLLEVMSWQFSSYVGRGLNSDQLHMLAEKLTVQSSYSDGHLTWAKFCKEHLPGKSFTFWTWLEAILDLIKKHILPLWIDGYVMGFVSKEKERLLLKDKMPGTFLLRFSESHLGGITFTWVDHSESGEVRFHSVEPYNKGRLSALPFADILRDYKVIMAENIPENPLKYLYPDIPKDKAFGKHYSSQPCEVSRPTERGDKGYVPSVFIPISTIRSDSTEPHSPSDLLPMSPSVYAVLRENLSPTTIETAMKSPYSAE

**Q.** Which Kd (STAT6) does the source give for `CC[C@H](C)[C@H](NC(=O)[C@H](CC(C)C)NC(=O)[C@H](CC(=O)O)NC(=O)[C@H](CCC(N)=O)NC(=O)[C@H](Cc1ccccc1)NC(=O)[C@@H]1CCCN1C(=O)[C@H](CCCCN)NC(=O)[C@H](Cc1ccc(OP(=O)(O)O)cc1)NC(C)=O)C(N)=O` (Ac-[pY]KPFQDLI-NH2) here?
**A.** 928 ± 249 nM

**Q.** For `CC(C)C[C@H](NC(=O)[C@H](Cc1c[nH]c2ccccc12)NC(=O)[C@H](CCCCN)NC(=O)[C@H](CC(=O)O)NC(=O)[C@H](CC(C)C)NC(=O)[C@@H](NC(=O)[C@H](CC(C)C)NC(=O)[C@H](Cc1ccc(OP(=O)(O)O)cc1)NC(=O)[C@@H](NC(=O)[C@H](CC(=O)O)NC(=O)[C@@H](N)CCC(N)=O)[C@@H](C)O)C(C)C)C(=O)O` (H-QDT[pY]LVLDKWL-OH), which Kd (STAT5B) is on record?
**A.** 1020 ± 179 nM

**Q.** What about the Kd (STAT5B(N642H)) of the same compound?
**A.** 97.8 ± 43.3 nM

**Q.** For `CC(=O)N[C@@H](CC(=O)O)C(=O)N[C@@H](CCC(=O)O)C(=O)N[C@@H](Cc1ccc(OP(=O)(O)O)cc1)C(=O)N[C@@H](CCC(=O)O)C(=O)N[C@@H](CC(N)=O)C(=O)N[C@H](C(=O)N[C@@H](CC(=O)O)C(N)=O)C(C)C` [Ac-DEpYENVD-NH2] (Ac-DE[pY]ENVD-NH2), which Kd (FER) is on record?
**A.** 7770 ± 2130 nM

**Q.** With `CC(=O)NCC(=O)N[C@@H](Cc1ccc(OP(=O)(O)O)cc1)C(=O)N[C@@H](CC(=O)O)C(=O)N[C@@H](CCCCN)C(=O)N1CCC[C@H]1C(=O)N[C@@H](Cc1c[nH]cn1)C(=O)N[C@H](C(=O)N[C@@H](CC(C)C)C(N)=O)C(C)C` [Ac-GpYDKPHVL-NH2] (Ac-G[pY]DKPHVL-NH2) as the compound, how does the Kd (STAT1) read?
**A.** 155 ± 38.2 nM

**Q.** Which Kd (PIK3R1(SH2dom.C-term.)) does the source give for `CSCC[C@H](NC(=O)[C@@H]1CCCN1C(=O)[C@@H](NC(=O)[C@H](Cc1ccc(OP(=O)(O)O)cc1)NC(=O)CNC(C)=O)C(C)C)C(=O)N[C@@H](CC(C)C)C(=O)O` [Ac-GpYVPML-OH] (Ac-G[pY]VPML-OH) here?
**A.** 4.24 ± 0.48 nM

**Q.** And the Kd (PIK3R2(SH2dom.C-term.))?
**A.** 4.82 ± 1.95 nM

**Q.** What about the Kd (PIK3R3(SH2dom.C-term.)) of the same compound?
**A.** 2.27 ± 0.32 nM

**Q.** With `CC(=O)N[C@@H](CCCCN)C(=O)N[C@@H](CCC(=O)O)C(=O)N[C@@H](CCC(=O)O)C(=O)NCC(=O)N[C@@H](Cc1ccc(OP(=O)(O)O)cc1)C(=O)N[C@@H](CCC(=O)O)C(=O)N[C@@H](CC(C)C)C(=O)N1CCC[C@H]1C(=O)N[C@@H](Cc1ccc(O)cc1)C(=O)N[C@@H](CC(N)=O)C(=O)N1CCC[C@H]1C(N)=O` [Ac-KEEGpYELPYNP-NH2] as the compound, how does the Kd (ABL1) read?
**A.** 28800 ± 8130 nM

**Q.** `CSCC[C@H](NC(=O)[C@H](CC(=O)O)NC(=O)[C@H](Cc1ccc(OP(=O)(O)O)cc1)NC(=O)[C@H](CC(=O)O)NC(=O)[C@H](Cc1ccccc1)NC(=O)[C@H](CO)NC(C)=O)C(=O)N1CCC[C@H]1C(=O)N[C@@H](Cc1c[nH]cn1)C(=O)N[C@H](C(=O)N[C@@H](CC(C)C)C(N)=O)C(C)C` [Ac-SFDpYDMPHVL-NH2] (Ac-SFD[pY]DMPHVL-NH2) was tested. Which Kd (STAT4) did it give?
**A.** 1280 ± 133 nM
